Assay [1] deals with RNA polymerase III. The experiment in a line: IFN-β mRNA in RAW264.7 cells after P. yoelii YM gDNA stimulation, with RNA polymerase III knockdown or inhibition. To be noted: siRNA 48 h or ML60218 pretreatment 24 h, then P. yoelii YM gDNA stimulation 6 h. The class given is cell-based. An excerpt: FIGS. 10A to 10G show type I IFN gene expression after P. yoelii YM gDNA or RNA stimulation and WT mice serum cytokine level after P. yoelii YM infection. […] Data are plotted as the mean±s.d. and are representative of three independent experiments. *P<0.05, **P<0.01, ***P<0.001 vs. corresponding control. ND, not detected; NS, not significant.
To understand the molecular mechanisms by which mice deficient in the cGAS, Sting, Mda5, or Mavs gene were resistant to P. yoelii YM infection, experiments were conducted to determine whether cGAS and MDA5 function as DNA/RNA sensors for detecting P. yoelii YM gDNAs or RNAs (FIG. 2a). Both purified P. yoelii YM gDNA and RNA could induce IFN-β mRNA expression in RAW264.7 cells (FIG. 2b). The ability of P. yoelii YM gDNA to induce type I IFN response was completely abolished upon DNase, but not RNase, treatment (FIG. 10a). Similarly, the stimulating activity of parasite RNA was abolished after treatment with RNase, but not DNase (FIG. 10a), which is in agreement with other studies showing that malaria RNA can be detected by MDA5 sensor (Liehl, P. et al. Nat Med 20:47-53 (2014); Wu, J. et al. Proc Natl Acad Sci USA 111:E511-520 (2014)). […]

Assay [2] has as its system P. yoelii YM. The experiment in a line: Daily parasitemia and mortality of mice after P. yoelii YM infection. The class given is in vivo, mouse. On the procedure:
(§1) The parasite Plasmodium yoelii YM, N67C and N67 have been previously described (Li, J. et al. Proc Natl Acad Sci USA 108:E374-382 (2011)). For plasmodium infection, 0.2 (low) or 2×10^6 iRBCs (otherwise, indicated specifically in the figure legend) suspended in 200 μl PBS from the donor mice were intraperitoneally injected into experimental mice. A higher parasite dose (1×10^7 iRBCs) was used in some experiments. Parasitemias were monitored daily by examination of Giemsa-stained thin tail blood smears. Female mice C57BL/6 (WT), Mavs^−/−, Mda5^−/−, Myd88^−/−, Sting^−/−, Trif^−/−, BDCA2-DTR, Tlr2^−/−, Tlr3^−/−, and Tlr4^−/− mice were purchased from The Jackson Laboratory. Tlr9^−/− mice, Tlr7^−/−, Rig-I^−/− mice, Irf3^−/−:Irf7^−/− mice, and cGAS^−/− mice were obtained. All mouse-related procedures were performed according to experimental protocols approved by the Animal Care and Welfare Committee at Houston Methodist Research Institute and in accordance with NIH-approved animal study protocol LMVR-11E.
(§2) To deplete pDCs, pDC-depleting functional-grade mAb (anti-mPDCA-1 IgG, clone JF05-1C2.4.1) and the corresponding isotype control IgG, which served as control, were purchased from Miltenyi Biotec (Auburn, Calif.). Two intraperitoneal injections of antibody (250 μg/mouse) per mouse were administered 12 h prior and after YM infection.
In Vivo Ready siRNAs were mixed with Invivofectamine 3.0 liposomes (Invitrogen) following the manufacturer's instructions and injected intravenously in a volume of 100 μl at a dose of 5 mg/kg. Mice were infected with P. yoelii YM (0.5×10^6 iRBCs) 48 h after siRNA treatment.
Deficient (Mda5^−/−, Mavs^−/−, and Sting^−/−) mice were crossed with BDCA2-DTR transgenic mice and treated with diphtheria toxin (DT, Sigma-Aldrich) intraperitoneally (i.p.) at a dose of 100-120 ng/mouse. pDCs were depleted by DT injection at 1 day before and 1, 3, and 5 days after P. yoelii YM infection.
The parasite Plasmodium yoelii YM and Plasmodium yoelii N67C have been previously described (Wu, J. et al. Proc Natl Acad Sci USA 111:E511-520 (2014); Li, J. et al. Proc Natl Acad Sci USA 108:E374-382 (2011)). For plasmodium infection, 0.2 (low) or 2×10^6 iRBCs (otherwise, indicated specifically in the figure legend) suspended in 200 μl PBS from the donor mice were intraperitoneally injected into experimental mice. Parasitemias were monitored daily by examination of Giemsa-stained thin tail blood smears. Female mice C57BL/6 (WT), Mavs^−/−, Mda5^−/−, Sting^−/−, BDCA2-DTR, zDC-DTR, Ifnar^−/−, and Rag2^−/− mice were purchased from The Jackson Laboratory. All mouse-related procedures were performed according to experimental protocols approved by the Animal Care and Welfare Committee at Houston Methodist Research Institute and in accordance with NIH-approved animal study protocol LMVR-11E.
To block type I IFN receptor, anti-mouse interferon α/β receptor antibodies (Leinco Technologies), in the amount of 500 μg in PBS at day 0, 2, 4, and 250 μg at day 6 after infection (or indicated specifically in the figure legend), were intraperitoneally injected into WT and deficient mice. Mouse IgG antibody was used as control, and parasitemias were monitored by daily Giemsa-stained blood smears. To test the role of type I IFN cytokines, C57BL/6 mice were first infected with P. yoelii YM, and then intravenously injected with 800 U/g mouse recombinant IFN-α and IFN-β, recombinant IL-6, or recombinant IFN-γ at the indicated time points. Bovine serum albumin (BSA, 0.1%) in PBS served as a control, and parasitemias were monitored by daily Giemsa-stained blood smears. To deplete pDCs, pDC-depleting functional-grade mAb (anti-mPDCA-1 IgG, clone JF05-1C2.4.1) was purchased from Miltenyi Biotec (Auburn, Calif.), and the corresponding isotype control IgG served as control. Two intraperitoneally injections of antibody (250 μg/mouse) per mouse were administered 12 h prior and after plasmodium YM infection or indicated specifically in the figure legend. […]

The subject of assay [3] is P. yoelii YM. As to the kind of experiment: Serum cytokine levels (ELISA) in mice after P. yoelii YM infection. The class given is in vivo, mouse. On the procedure:
as §1, §2
Mouse splenocytes were prepared from spleens cut into small fragments and digested with collagenase D (1 mg/ml, Sigma) and DNAse I (20 μg/ml, Sigma) in RPMI-1640 medium for 30 min. […] Cells were analyzed using the BD FACS Aria II. […]
In Vivo Ready siRNAs were mixed with Invivofectamine 3.0 liposomes (Invitrogen) following the manufacturer's instructions and injected intravenously in a volume of 100 μl at a dose of 5 mg/kg. […]
The parasite Plasmodium yoelii YM and Plasmodium yoelii N67C have been previously described (Wu, J. et al. Proc Natl Acad Sci USA 111:E511-520 (2014); Li, J. et al. Proc Natl Acad Sci USA 108:E374-382 (2011)). […] Parasitemias were monitored daily by examination of Giemsa-stained thin tail blood smears. […]
In general terms: In an ELISA, binding on a coated surface is turned into a signal by an enzyme label.

Assay [4] deals with P. berghei ANKA. To be noted: previous studies; cited from earlier work.
Setting [5] is: Sting-/- mice, macrophage depletion at one day post infection, vs liposome control or treatment two days before.
The mark [6] stands for this setting: Mavs-/-:zDC-DTR mice, DT after 24 h of infection, vs untreated or DT four days before.
Where [7] appears, read: WT mice, recombinant cytokine i.v. at 18 h post YM infection.

As to `Cc1c(-c2cc(NS(=O)(=O)c3ccccc3Cl)n(C)n2)sc2ccc(Cl)cc12` [ML60218], the “IFN-β mRNA expression” value in assay [1] was “markedly inhibited”.
`O=P(O)(O)C(Cl)(Cl)P(=O)(O)O` [clodronate]: in assay [2] (setting [5]), the host mortality entry was “markedly increased parasitemia and host mortality”; the parasitemia entry was “markedly increased parasitemia and host mortality”. In addition, the “serum levels of IFN-α and IFN-β” value in assay [3] (Sting-/- mice, macrophage depletion two days before or one day after YM infection) is on record as “did not affect”.
Regarding diphtheria toxin [DT], the “sensitivity to P. yoelii YM infection based on parasitemia and survival” value in assay [2] (DT-treated Mavs-/-:BDCA2-DTR mice vs DT-treated Mavs-/- mice) was “sensitive to P. yoelii YM infection”. In addition, in assay [2] (setting [6]), the parasitemia result was “increased parasitemia” and the time of death result is recorded as “died sooner”. In assay [3] (Mavs-/-:BDCA2-DTR mice treated with DT vs Mavs-/- mice treated with DT, 24 h after infection), the “serum IFN-α and IFN-β” value is on record as “markedly reduced”. For the same molecule, the “serum levels of IFN-α and IFN-β” value in assay [3] (Mavs-/-:zDC-DTR chimeric mice, DT four days before or one day post infection) is on record as “no change”.
Take “murine IFN-β: murine IFN-β of previous studies”: the “protection of mice from ANKA infection” value in assay [4] is listed as “protect”.

B1: IL-6: recombinant IL-6 injected intravenously (protein, UniProt P08505 25-211, looked up)
Interleukin-6: FPTSQVRRGDFTEDTTPNRPVYTTSQVGGLITHVLWEIVEMRKELCNGNSDCMNNDDALAENNLKLPEIQRNDGCYQTGYNQEICLLKISSGLLEYHSYLEYMKNNLKDNKKDKARVLQRDTETLIHIFNQEVKDLHKIVLPTPISNALLTDKLESQKEWLRTKTIQFILKSLEEFLKVTLRSTRQT
Consider B1, for which, in assay [2] (setting [7]), the host mortality entry is “failed to do so” and the parasitemia entry is recorded as “failed to do so”.

B2: IFN-γ: recombinant IFN-γ injected intravenously (protein, UniProt P01580 23-155, looked up)
Interferon gamma: HGTVIESLESLNNYFNSSGIDVEEKSLFLDIWRNWQKDGDMKILQSQIISFYLRLFEVLKDNQAISNNISVIESHLITTFFSNSKAKKDAFMSIAKFEVNNPQVQRQAFNELIRVVHQLLPESSLRKRKRSRC
Consider B2, for which, in assay [2] (setting [7]), the host mortality result is “failed to do so” and the parasitemia entry was “slightly increased”.

Source of the values: patent US20190048342A1, “CROSS-REGULATION OF TYPE I INTERFERON SIGNALING PATHWAYS” (THE METHODIST HOSPITAL SYSTEM, priority 2016, published 2019).
